Results reported in patent USRE48461E1, “Modulation of androgen receptor expression” (Ionis Pharmaceuticals, Inc., priority 2012, dated 2021).

Legend:
Format in all cases: cell-based, human
[1] = tested on: AR mRNA; test: AR RNA expression in C4-2B cells (complete, CSS+DHT medium; Example 30); details: 48 hrs
Protocol: (§1) Cells were plated at 1,000 cells per well. […] ISIS 549148 was included as a negative control. […] After an incubation period of 48 hrs, RNA levels of AR, PSA and TMPRSS2 were measured.
(§2) Cells were plated at 2,000 cells per well and cultured in CSS media with 1 nM DHT. […] ISIS 549148 was included as a negative control. […] After an incubation period of 48 hrs, RNA levels of AR, PSA and TMPRSS2 were measured. In the absence of DHT, AR expression in C4-2 cells was 188%, PSA expression was 43% and TMPRSS2 expression was 27% compared to the untreated control.

[2] = tested on: AR mRNA; test: Time-course AR mRNA expression in C4-2B cells (8, 24, 48 hours); details: for Percent expression of AR compared to the control group in 8 hours / Percent expression of AR compared to the control group in 48 hours / Percent expression of AR compared to the control group in 24 hours: C4-2B cells
Protocol: C4-2B cells were plated at 1,000 cells per well in complete medium. […] After a treatment period of 8 hours, 24 hours, and 48 hours, AR expression was measured with primer probe set hAR-LTS00943.

[3] = tested on: LNCaP cells; test: LNCaP cell proliferation, ASO in combination with MDV3100 (Example 20); details: for Proliferation (% untreated control) in LNCaP without MDV-3100: 5 days
Protocol: LNCaP cells were plated at 1,000 cells per well. […] ISIS 549148 was included as a negative control. […] After a treatment period of 5 days, the proliferative capacity of the cancer cells was measured with CellTiter 96® AQueous One or CellTiter-Glo® Solution Cell Proliferation kit (Promega), following the manufacturer's instructions. […]

[4] = tested on: C4-2B cells; test: C4-2B cell proliferation, ASO in combination with MDV3100 (Example 21); details: for Proliferation (% untreated control) in C4-2B without MDV-3100: 5 days
Protocol: C4-2B cells were plated at 1,000 cells per well. […] ISIS 549148 was included as a negative control. […] After a treatment period of 5 days, the proliferative capacity of the cancer cells was measured with CellTiter 96® AQueous One Solution Cell Proliferation kit (Promega), following the manufacturer's instructions. […]

[5] = tested on: TMPRSS2 mRNA; test: TMPRSS2 expression in C4-2B cells (Example 30); details: 48 hrs
Protocol: as §1, §2

[6] = tested on: AR V7 variant mRNA; test: AR V7 variant RNA in 22RV1 cells; details: RNAiMax, 48 hrs
[7] = tested on: prostate-specific antigen (PSA) mRNA; test: PSA mRNA levels in LMR20 cells; details: with or without DHT/R1881
Protocol: LMR20 cells were plated at 1,500 cells per well in phenol red-free medium with CSS. […] Results are presented in Tables 43-45 as mRNA levels expressed as a percentage of the baseline values. mRNA levels may be lowered or increased after treatment.

[8] = ASO dose 0.04 μM + 0.08 μM MDV-3100
[9] = ASO dose 0.04 μM + 0.4 μM MDV-3100
[10] = ASO dose 0.04 μM + 2.0 μM MDV-3100
[11] = ASO dose 0.04 μM + […] MDV-3100
[12] = ASO dose 0.08 μM + 0.08 μM MDV-3100
[13] = ASO dose 0.08 μM + 0.4 μM MDV-3100
[14] = ASO dose 0.08 μM + 2.0 μM MDV-3100
[15] = ASO dose 0.08 μM + […] MDV-3100
[16] = ASO dose 0.2 μM + 0.08 μM MDV-3100
[17] = ASO dose 0.2 μM + 0.4 μM MDV-3100
[18] = ASO dose 0.2 μM + 2.0 μM MDV-3100
[19] = ASO dose 1.0 μM + 0.08 μM MDV-3100
[20] = ASO dose 1.0 μM + 0.4 μM MDV-3100
[21] = ASO dose 1.0 μM + 2.0 μM MDV-3100

TGATTTAATGGTTGCA [ISIS 569236] (cEt/MOE gapmer chemistry, further chemistry not given here) [targets intron 1]
Percent expression of AR ([1]; CSS + DHT medium, 0.04 μM): 67%
Percent expression of AR ([1]; CSS + DHT medium, 0.2 μM): 49%
Percent expression of AR ([1]; CSS + DHT medium, 1 μM): 24%
Percent expression of AR ([1]; CSS + DHT medium, 5.0 μM): 19%
Percent expression of AR ([1]; complete medium, 0.04 μM): 61%
Percent expression of AR ([1]; complete medium, 0.2 μM): 23%
Percent expression of AR ([1]; complete medium, 1 μM): 20%
Percent expression of AR ([1]; complete medium, 5.0 μM): 16%
Percent expression of AR compared to the control group in 8 hours ([2]; 0.04 μM): 100%
Percent expression of AR compared to the control group in 48 hours ([2]; 0.04 μM): 80%
Percent expression of AR compared to the control group in 8 hours ([2]; 0.2 μM): 87%
Percent expression of AR compared to the control group in 24 hours ([2]; 0.2 μM): 35%
Percent expression of AR compared to the control group in 48 hours ([2]; 0.2 μM): 19%
Percent expression of AR compared to the control group in 8 hours ([2]; 1 μM): 84%
Percent expression of AR compared to the control group in 24 hours ([2]; 1 μM): 15%
Percent expression of AR compared to the control group in 48 hours ([2]; 1 μM): 7%
Percent expression of AR compared to the control group in 8 hours ([2]; 5.0 μM): 58%
Percent expression of AR compared to the control group in 24 hours ([2]; 5.0 μM): 5%
Percent expression of AR compared to the control group in 48 hours ([2]; 5.0 μM): 2%
AR expression ([2]; C4-2B cells, 8, 24 and 48 hours): reduced AR expression in the cells relative to the control set
Proliferation (% untreated control) in LNCaP with 0.08 μM MDV-3100 [3, 8]: 74 % untreated control
Proliferation (% untreated control) in LNCaP with 0.4 μM MDV-3100 [3, 9]: 48 % untreated control
Proliferation (% untreated control) in LNCaP with 2.0 μM MDV-3100 [3, 10]: 41 % untreated control
Proliferation (% untreated control) in LNCaP with […] MDV-3100 [3, 11]: 92 % untreated control
Proliferation (% untreated control) in LNCaP without MDV-3100 ([3]; ASO dose 0.04 μM): 91 % untreated control
Proliferation (% untreated control) in LNCaP with 0.08 μM MDV-3100 [3, 12]: 98 % untreated control
Proliferation (% untreated control) in LNCaP with 0.4 μM MDV-3100 [3, 13]: 61 % untreated control
Proliferation (% untreated control) in LNCaP with 2.0 μM MDV-3100 [3, 14]: 44 % untreated control
Proliferation (% untreated control) in LNCaP with […] MDV-3100 [3, 15]: 104 % untreated control
Proliferation (% untreated control) in LNCaP without MDV-3100 ([3]; ASO dose 0.08 μM): 106 % untreated control
Proliferation (% untreated control) in LNCaP with 0.08 μM MDV-3100 [3, 16]: 51 % untreated control
Proliferation (% untreated control) in LNCaP with 0.4 μM MDV-3100 [3, 17]: 41 % untreated control
Proliferation (% untreated control) in LNCaP with 2.0 μM MDV-3100 [3, 18]: 35 % untreated control
Proliferation (% untreated control) in LNCaP with […] MDV-3100 ([3]; ASO dose 0.2 μM + […] MDV-3100): 58 % untreated control
Proliferation (% untreated control) in LNCaP without MDV-3100 ([3]; ASO dose 0.2 μM): 60 % untreated control
Proliferation (% untreated control) in LNCaP with 0.08 μM MDV-3100 [3, 19]: 31 % untreated control
Proliferation (% untreated control) in LNCaP with 0.4 μM MDV-3100 [3, 20]: 27 % untreated control
Proliferation (% untreated control) in LNCaP with 2.0 μM MDV-3100 [3, 21]: 23 % untreated control
Proliferation (% untreated control) in LNCaP with […] MDV-3100 ([3]; ASO dose 1.0 μM + […] MDV-3100): 29 % untreated control
Proliferation (% untreated control) in LNCaP without MDV-3100 ([3]; ASO dose 1.0 μM): 35 % untreated control
synergy with MDV3100 ([3]; LNCaP cells): synergistic with MDV3100
cell proliferation inhibited, combination ([3]; LNCaP cells, 0.04 μM ASO in combination with 0.08 μM MDV3100): 26%
inhibited cell proliferation, ASO alone ([3]; LNCaP cells, ASO alone at 0.04 μM): 9%
Proliferation (% untreated control) in C4-2B with 0.08 μM MDV-3100 [4, 8]: 79 % untreated control
Proliferation (% untreated control) in C4-2B with 0.4 μM MDV-3100 [4, 9]: 63 % untreated control
Proliferation (% untreated control) in C4-2B with 2.0 μM MDV-3100 [4, 10]: 45 % untreated control
Proliferation (% untreated control) in C4-2B with […] MDV-3100 [4, 11]: 74 % untreated control
Proliferation (% untreated control) in C4-2B without MDV-3100 ([4]; ASO dose 0.04 μM): 72 % untreated control
Proliferation (% untreated control) in C4-2B with 0.08 μM MDV-3100 [4, 12]: 89 % untreated control
Proliferation (% untreated control) in C4-2B with 0.4 μM MDV-3100 [4, 13]: 90 % untreated control
Proliferation (% untreated control) in C4-2B with 2.0 μM MDV-3100 [4, 14]: 44 % untreated control
Proliferation (% untreated control) in C4-2B with […] MDV-3100 [4, 15]: 107 % untreated control
Proliferation (% untreated control) in C4-2B without MDV-3100 ([4]; ASO dose 0.08 μM): 100 % untreated control
Proliferation (% untreated control) in C4-2B with 0.08 μM MDV-3100 [4, 16]: 51 % untreated control
Proliferation (% untreated control) in C4-2B with 0.4 μM MDV-3100 [4, 17]: 48 % untreated control
Proliferation (% untreated control) in C4-2B with 2.0 μM MDV-3100 [4, 18]: 48 % untreated control
Proliferation (% untreated control) in C4-2B with […] MDV-3100 ([4]; ASO dose 0.2 μM + […] MDV-3100): 65 % untreated control
Proliferation (% untreated control) in C4-2B without MDV-3100 ([4]; ASO dose 0.2 μM): 63 % untreated control
Proliferation (% untreated control) in C4-2B with 0.08 μM MDV-3100 [4, 19]: 43 % untreated control
Proliferation (% untreated control) in C4-2B with 0.4 μM MDV-3100 [4, 20]: 39 % untreated control
Proliferation (% untreated control) in C4-2B with 2.0 μM MDV-3100 [4, 21]: 46 % untreated control
Proliferation (% untreated control) in C4-2B with […] MDV-3100 ([4]; ASO dose 1.0 μM + […] MDV-3100): 55 % untreated control
Proliferation (% untreated control) in C4-2B without MDV-3100 ([4]; ASO dose 1.0 μM): 51 % untreated control
synergy with MDV3100 ([4]; C4-2B cells): synergistic with MDV3100
cell proliferation inhibited, combination ([4]; C4-2B cells, 0.2 μM ASO in combination with 0.08 μM MDV3100): 52%
inhibited cell proliferation, ASO alone ([4]; C4-2B cells, ASO alone at 0.2 μM): 37%
Percent inhibition of TMPRSS2 expression ([5]; CSS + DHT medium, 0.04 μM): 0%
Percent inhibition of TMPRSS2 expression ([5]; CSS + DHT medium, 0.2 μM): 6%
Percent inhibition of TMPRSS2 expression ([5]; CSS + DHT medium, 1 μM): 43%
Percent inhibition of TMPRSS2 expression ([5]; CSS + DHT medium, 5.0 μM): 59%
Percent inhibition of TMPRSS2 expression ([5]; complete medium, 0.04 μM): 33%
Percent inhibition of TMPRSS2 expression ([5]; complete medium, 0.2 μM): 59%
Percent inhibition of TMPRSS2 expression ([5]; complete medium, 1 μM): 69%
Percent inhibition of TMPRSS2 expression ([5]; complete medium, 5.0 μM): 73%
Percent inhibition of AR V7 variant ([6]; CSS + DHT medium, 1.34 nM): 54%
Percent inhibition of AR V7 variant ([6]; CSS + DHT medium, 4.0 nM): 88%
Percent inhibition of AR V7 variant ([6]; CSS + DHT medium, 13.4 nM): 97%
Percent inhibition of AR V7 variant ([6]; complete medium, 1.34 nM): 30%
Percent inhibition of AR V7 variant ([6]; complete medium, 4.0 nM): 2%
Percent inhibition of AR V7 variant ([6]; complete medium, 13.4 nM): 46%
Percent inhibition of AR V7 variant ([6]; complete medium, 40 nM): 81%
PSA mRNA levels in LMR20 cells [7]: reduced PSA levels and TMPRSS2 more extensively than the LNA gapmer ISIS 554221 or MDV3100
